Measurements reported in PubChem BioAssay AID179 (DTP/NCI, 2004).
“And” between values parts separate entries of the source, which are not always exact repeats. Equal values may be shown once. The source made the active and inactive calls.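 Rule for the calls: active = compounds giving half or more protection of infected cells from virus-caused growth loss, again on retest; inactive = the rest.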 Where a SMILES comes first, the peptide text is derived from it. The star is where a group is joined. Cbz = O=C(OCc1ccccc1)*

System: CEM cells HIV-1 protection, formazan growth assay
Assay: NCI AIDS Antiviral Assay
Conditions: for IC50: measured here: growth of uninfected CEM cells
Outline: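 Soluble formazan readout of cell growth; CEM cells ± HIV-1; 5 drug concs. ≥50% protection → retest; ≥50% again = moderately active; reproducible 100% = confirmed active.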

| Compound | EC50 [µM] | IC50 | outcome |
| --- | --- | --- | --- |
| COc1ccccc1NC(=O)/C(=C\n1c(=S)[nH]c2ccc([N+](=O)[O-])cc21)C(C)=O | > 200 | 112 µM |  |
| CC(=O)[C@H]1[C@@H](OCc2ccccc2)O[N+]([O-])=C(C)[C@@H]1c1ccccc1 | > 123 | 89.1 µM |  |
| CCOP(=O)(OCC)C(Nc1ccc(C(=O)O)cc1)c1ccc(C(Nc2ccc(C(=O)O)cc2)P(=O)(OCC)OCC)cc1 (centres undefined) | > 200 | > 200 µM |  |
| CC(C)(C)OC(=O)NC(Cc1ccc(OC(C)(C)C)cc1)C(=O)N[C@H]1CC[C@H](C(=O)O)C1 (some centres undefined) |  |  | inactive |
| COC(=O)C(=O)C(C(=O)C(=O)Nc1ccccc1C(N)=O)c1nc2ccc(Cl)cc2[nH]c1=O (centres undefined) | > 75.9 | > 75.9 µM |  |
| CCCCN(O)[C@@H]1CC(n2cc(C)c(=O)[nH]c2=O)OC1CO[Si](C)(C)C(C)(C)C (some centres undefined) | > 200 | 83.2 µM |  |
| N#Cc1c2c(c(N=P(c3ccccc3)(c3ccccc3)c3ccccc3)n3c1nc1ccccc13)CCCC2 | > 1.05 | > 1.05 µM |  |
| O=C(O)C(O)(c1ccccc1)c1ccsc1 (centres undefined) | > 200 | > 200 µM |  |
| O=C(O)CCCc1ccc(N(CCCl)OCCCl)cc1 | > 200 | 21.9 µM |  |
| CC(=O)OC1C=C2c3cc4c(c(O)c3C(=O)NC2[C@H](OC(C)=O)[C@@H]1OC(C)=O)OCO4 (some centres undefined) |  |  | inactive |
| N#C/C(=C\c1ccc2ccccc2c1)c1ccccc1 | > 14.8 | > 14.8 µM |  |
| O=C1/C(=C/c2ccccc2)NC(=S)N1CN1CCCCC1 | > 200 | 33.9 µM |  |
| COC1=CC(=O)c2ccccc2C1(C)C1=NC(C)(C)CO1 (centres undefined) | > 631 | > 631 µM |  |
| CCOc1ccc2c(ccc(/C=C\c3cc(C)c4cccnc4c3O)[n+]2C)c1 | > 52.5 | 0.955 µM |  |
| CC1=CC(C)=Nc2ccc(Cl)cc2N1 | > 200 | 91.2 µM and > 200 µM |  |
| O=C1NNC(=O)C2C3C=CC(O3)C12 (centres undefined) | > 200 | > 200 µM |  |
| Cc1nnc(SCC2=C(C(=O)O)N3C(=O)C(NC(=O)Cn4cc(Cl)c(=O)c(Cl)c4)C3SC2)s1 (centres undefined) | > 200 | > 200 µM |  |
| CC12CC3CC(C)(C1)CC(SCCN)(C3)C2 | > 200 | 38 µM |  |
| Cc1cc(=O)[nH]c(CNC(=O)c2ccc3ccccc3c2)n1 | > 123 | > 123 µM |  |
| OCC1c2ccccc2-n2nc(-c3ccccc3)c(O)c21 (centres undefined) | > 200 | 3.31 µM |  |
| O=S(c1ccccc1)c1ccccc1 | > 447 | 389 µM |  |
| Cc1ccc(NC(=O)CC2C(=O)Nc3ccccc3S2=O)cc1C (centres undefined) | > 15.1 | > 15.1 µM |  |

| Compound | EC50 [µM] | IC50 | outcome |
| --- | --- | --- | --- |
| CO[C@H]1C[C@H](n2cc(C)c(=O)[nH]c2=O)O[C@@H]1CO | > 200 | > 200 µM |  |
| C=C1CN(S(=O)(=O)c2ccc(C)cc2)CCCN(CCC(C)C)CCCN(S(=O)(=O)c2ccc(C)cc2)C1 | > 200 | 1.02 µM |  |
| C[C@H](CS)C(=O)N1c2ccccc2C[C@H]1C(=O)O | > 200 | > 200 µM |  |
| COC1=C(C(=O)OC(C)(C)C)[C@]2(C)C(C(=O)OC(C)(C)C)C(OC)=C(C(=O)OC(C)(C)C)[C@]2(C)C1C(=O)OC(C)(C)C (some centres undefined) |  |  | inactive |
| Nc1nc(Cl)cc(OCC2(CO)CCCC2)n1 | > 200 | 110 µM |  |
| COC12C[C@H]3CCC([C@H](C)c4ccc5c(c41)CC1[C@H]5C[C@@H](O)C4C[C@@H](O)CC[C@@]41C)N2C3 (some centres undefined) | > 40.7 | > 40.7 µM |  |
| CCC[C@H]1[C@H](CCC)[C@@]2(OC(=O)C3=C2CCC=C3)[C@]12OC(=O)C1=C2CCC=C1 | > 107 | 20 µM |  |
| C=CCN1COc2c(cc3c4c(cccc24)C(=O)O3)C1 | > 26.9 | 4.27 µM |  |
| CCOC(=O)c1c(-c2ccc(Cl)cc2)c(C#N)c(=S)n(C2OC(COC(C)=O)C(OC(C)=O)C(OC(C)=O)C2OC(C)=O)c1C (centres undefined) | > 200 | 36.3 µM |  |
| COc1cccc(/C=C2/Sc3sc(C(C)=O)c(C)[n+]3C2=O)c1O | > 89.1 | 34.7 µM |  |
| c1ccc(C2=NN(c3ccccc3)CC2)cc1 |  |  | inactive |
| C(#CC1(Nc2ccccc2)CCN(Cc2ccccc2)CC1)C1(Nc2ccccc2)CCN(Cc2ccccc2)CC1 | > 100 | 74.1 µM |  |
| COc1cc(C2c3cc4c(cc3OC(NN)C2C)OCO4)cc(OC)c1O (centres undefined) |  |  | inactive |
| COc1ccc(/C=C(\C#N)c2ccc(OC)c(OC)c2)cc1 | > 2 | 0.257 µM |  |
| CN(C)CCNC(=O)c1cnn(C)c1[N+](=O)[O-] | > 200 | > 200 µM |  |
| COC(=O)C1=CCC(n2cnc3c(N)ncnc32)CC1 (centres undefined) | > 912 | 110 µM |  |
| Cc1[nH]c(-c2ccccc2)c2nc(N(C)C)oc(=O)c12 | > 200 | > 200 µM |  |
| CN1CCCC(CNC23CC4CC(CC(C4)C2)C3)C1 (centres undefined) | > 501 | > 501 µM |  |
| O=[N+]([O-])c1ccc(/C=C/c2ccc(/C=C/c3ccc([N+](=O)[O-])cc3[N+](=O)[O-])cc2)c([N+](=O)[O-])c1 |  |  | inactive |
| CC(=O)NS(=O)(=O)c1ccc(NC(=O)c2ccccc2SC(=O)c2ccccc2)cc1 | 15.1 | 117 µM |  |
| CCOC(=O)c1nnc(-c2ccccc2)nc1Cl | > 200 | > 200 µM |  |
| c1ccc2c(c1)NC1CCN2C1 (centres undefined) | > 813 | > 813 µM |  |

| Compound | EC50 [µM] | IC50 | outcome |
| --- | --- | --- | --- |
| Cc1ccnn1CCc1ccc(Cl)cc1Cl | > 200 | 95.5 µM |  |
| NC(N)=NS(=O)(=O)c1ccc(N=c2c3ccccc3n(-c3ccccc3)c3ccccc23)cc1 |  |  | inactive |
| O=C1c2ccccc2C(=O)c2c(O)ccc(O)c21 | > 77.6 | > 77.6 µM |  |
| Cc1ccc(N=Nc2c(C)nn(C(=O)CC(=O)Nc3ccc(Cl)cc3)c2C)cc1C | > 200 | > 200 µM |  |
| CN1CC(=O)N(C)c2ncn(Cc3ccccc3)c2C1=O |  |  | inactive |
| CN(C)CCNC1c2ccccc2CCc2ccccc21 |  |  | inactive |
| CCOC(=O)c1ccc(-n2[nH]c(=O)ccc2=O)cc1 | > 191 | > 191 µM |  |
| O=C(/C=C/c1ccc(O)c(O)c1)NCCOC(=O)/C=C/c1ccc(O)c(O)c1 | > 200 | 8.51 µM |  |
| O=C(O)CNS(=O)(=O)c1ccc(NC(=O)c2ccc(Cl)cc2)cc1 |  |  | inactive |
| CCOC(=O)CNC(=O)C(NC(=O)C1CCCN1C(=O)OCc1ccccc1)C(C)CC (stereo not drawn) (Cbz-Pro-Ile-Gly-OEt; configuration not given here) | > 562 | 34.7 µM |  |
| Cn1cc2ccccc2c1-c1nc(N)nc(F)n1 | > 107 | 64.6 µM |  |
| C/C(=N/OC(=O)N(C)C)c1ccc(Cl)c(Cl)c1 | > 200 | 102 µM |  |
| COc1ccc2c(c1)-c1c(c3ccccc3n1CCN1CCOCC1)CC2 |  |  | inactive |
| Cc1ccc(S(=O)OCC23CC4CC(CC(C4)C2)C3)cc1 (centres undefined) |  |  | inactive |
| COc1cccc(CCn2c(N)c(-c3ccccc3)c3ccc([N+](=O)[O-])cc3c2=O)c1 | > 200 | 7.41 µM |  |
| O=[N+]([O-])c1cccc(C2=NOC(C3CCCCC3)C2)c1 (centres undefined) | > 36.3 | > 36.3 µM |  |
| CN=c1ss/c(=N\C(=S)N(C)C)n1-c1ccccc1 |  |  | inactive |
| Cc1[nH]n(C(=N)N)c(=O)c1CCO | > 200 | > 200 µM |  |
| CCOC(=O)NNC(=O)NCc1cccc(CNC(=O)NNC(=O)OCC)c1 | > 200 | > 200 µM |  |
| O=C(O)C1CC=CCC1c1c2ccc(=O)cc-2oc2cc(O)ccc12 (centres undefined) | 3.98 | 141 µM |  |
| N#CCCN(CCC#N)c1ccc(/C=C2\N=C(c3ccccc3)N(NC(=O)c3ccncc3)C2=O)cc1 | > 200 | 191 µM |  |
| Cc1cc[n+]2n1CC(O)C2 (centres undefined) |  |  | inactive |

| Compound | EC50 [µM] | IC50 | outcome |
| --- | --- | --- | --- |
| CN(C)c1nc(NN)c2c(-c3ccccc3)c(-c3ccccc3)oc2n1 | > 100 | > 100 µM |  |
| COC(=O)C(=O)C(C(=O)C(=O)Nc1cc([N+](=O)[O-])ccc1[N+](=O)[O-])c1nc2ccc(C(=O)c3ccccc3)cc2[nH]c1=O (centres undefined) | > 158 | 83.2 µM |  |
| C#CCNC(CSSCC(N)C(=O)O)C(=O)O (centres undefined) | 6.92 | > 200 µM |  |
| Cc1ccc2[nH]c3c(c2c1)C1CCC(C(C)(C)C)CC1C1C(=O)N(c2ccc(Oc4ccccc4)cc2)C(=O)C31 (centres undefined) | > 200 | 10.5 µM |  |
| CCOC(=O)/C(=C\c1ccc(OC)cc1)P(=O)(OCC)OCC | > 380 | 77.6 µM |  |
| S=C(N/N=C\C(=N/NC(=S)N1CCCCC1)c1ccccc1)N1CCCCC1 | > 200 | 3.8 µM |  |
| CC1=CSC(O)(c2ccc(Cl)cc2)c2noc(=O)n21 (centres undefined) | > 200 | 112 µM |  |
| CN(C)CCSc1nccc(-c2ccc(-c3ccnc(SCCN(C)C)n3)s2)n1 | > 102 | 0.182 µM |  |
| O=CC(=O)c1ccccc1 |  |  | inactive |
| COc1ccc(/C=C/c2cnc3ccccc3n2)cc1OC | > 200 | 155 µM |  |
| CCOC(=O)C(NC(=O)c1ccccc1)(Nc1ccc(S(=O)(=O)Nc2ccc(OC)nn2)cc1)C(F)(F)F (centres undefined) | > 200 | > 200 µM |  |
| COC(=O)[C@@]12OC[C@]34[C@H]([C@@H](O)[C@@H]1O)[C@@]1(C)CC(=O)C(O)=C(C)[C@@H]1C[C@H]3OC(=O)[C@H](OC(=O)C(N)Cc1ccccc1)[C@@H]24 (some centres undefined) |  |  | inactive |
| COC(=O)C1N=CSCC1(C)O (centres undefined) | > 1320 | 186 µM |  |
| O=C(Cc1ccccc1)NN1C(=O)/C(=C\c2ccc(O)cc2)SC1=Nc1ccccc1 | > 31.6 | > 31.6 µM |  |
| COC(=O)C12C3C4C5C3(C#N)C1C5(C(=O)OC)C42C(=O)N(C(C)C)C(C)C (centres undefined) | > 97.7 | > 97.7 µM |  |
| CCN(CC)/N=C\c1c2ccccc2cc2ccccc12 | > 200 | 85.1 µM |  |
| CSc1nc2c(nc(N)n2C2OCC(O)C(O)C2O)c(=O)[nH]1 (centres undefined) |  |  | inactive |
| O=C1Nc2ccccc2S/C1=C/c1ccccc1 | > 20.4 | > 20.4 µM |  |
| COc1cc2c(c(Cl)c1OC)CCN(C)CC2c1ccccc1 (centres undefined) | > 200 | 70.8 µM |  |
| COC1/C=C/OC2(C)Oc3c(C)c(O)c4c(O)c(c(/C=N/N=C(\N)N[N+](=O)[O-])c(O)c4c3C2=O)NC(=O)C(C)=C/C=C/C(C)C(O)C(C)C(O)C(C)C(OC(C)=O)C1C (centres undefined) |  |  | inactive |
